Tests used:
[1] = target: T1, PRMT1 (Homo sapiens, UniProt Q99873); assay: PRMT1 RKO Cellular Target Engagement Assay (In-Cell Western, asymmetric di-methyl arginine); format: cell-based; conditions: RKO cells, 48 hr compound incubation; read-out: RKO IC50 (PRMT-1 Target Engagement)
Summary of the method: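 RKO cells (1,000/well) received 1:3 serially diluted compound for 48 h at 37 °C, then were fixed, permeabilised and immunostained for asymmetric di-methyl arginine by In-Cell Western. The 800 nm antibody signal was normalised to CellTag 700 nm; IC50 from four-parameter logistic fit.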

[2] = test system: PATC53 cells; assay: PATC53 Long Term Phenotypic Assay (14 days, crystal violet viability); format: cell-based; conditions: 336 h
Experimental: PATC53 cells were derived from the PATC53 PDX model and kindly provided by Jason Fleming (MDACC). The cells were routinely maintained in DMEM/F12 Medium (Corning, Catalog #10-090-CV) supplemented with 10% fetal bovine serum (Sigma, Catalog #F2442), 100 units/mL penicillin and 100 μg/mL streptomycin (Gibco, Catalog #15140-122) in a humidified incubator (37° C., 5% CO2). Prior to the assay, cells were seeded onto a 12-well, TC treated plate (Corning, catalog #353043) at a density of 250 cells per well in a volume of 1 mL. The plate was incubated for 24 hours at 37° C. and 5% CO2. Stock solutions of the test compounds were prepared in 100% DMSO (Sigma, Catalog #D2650) and serially diluted 1:3 using 100% DMSO. Compounds were additionally diluted 1:100 in culture medium, and 110 μL/well was transferred to the tissue culture plate. Following the compound addition, the plate was incubated at 37° C. and 5% CO2 for 14 days. Viability was then assessed by crystal violet staining (Fisher Scientific, Catalog #C58125) as follows: 450 μL of crystal violet (1 mg/mL) was added to the plate for a 10 minute incubation at room temperature. After incubation, the plate was washed 3× with distilled water to remove excess dye and allowed to dry overnight. The crystal violet was solubilized using 10% HOAc (500 μL) for 10 minutes at room temperature, while shaking. A volume of 100 μL was then transferred to a 96-well SpectraPlate (Perkin Elmer, Catalog #6005649). Absorbance at 590 nm was measured with a BioTek Synergy Neo. IC50 values were calculated using a four-parameter logistic curve fit using Genedata Screener software.

[3] = test system: DOHH2 cells; assay: DOHH2 Long Term Phenotypic Assay (7 days, Cell Titer-Glo viability); format: cell-based; conditions: Homo sapiens, DOHH-2, 168 h, Cell Titer-Glo 2.0
Summary of the method: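 DOHH2 lymphoma cells (250 per well) in RPMI-1640 with 10% FBS were exposed to 1:3 serially diluted compounds for 7 days at 37 °C, 5% CO2. Viability was read by CellTiter-Glo 2.0 luminescence, and IC50 values came from four-parameter logistic fits.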

[4] = target: T1, PRMT1; assay: PRMT1 Enzymatic Assay (LANCE TR-FRET, methylation of histone H4 at Arg3); format: biochemical; design: purchased SignalChem P365-380G; conditions: PRMT1 1.5 nM, SAM 1 μM, biotinylated histone H4 (1-21) 25 nM; read-out: PRMT-1 IC50
Summary of the method: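 PRMT1 (1.5 nM) preincubated 15 min with compound at room temperature, then reacted 1 h with 1 μM SAM and 25 nM biotinylated histone H4 (1-21) in 50 mM Hepes pH 8, 1 mM TCEP, 0.003% Tween-20. H4R3me detected by TR-FRET (665/620 nm ratio); IC50 from four-parameter logistic fit.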

T1 sequence (Q99873 whole entry): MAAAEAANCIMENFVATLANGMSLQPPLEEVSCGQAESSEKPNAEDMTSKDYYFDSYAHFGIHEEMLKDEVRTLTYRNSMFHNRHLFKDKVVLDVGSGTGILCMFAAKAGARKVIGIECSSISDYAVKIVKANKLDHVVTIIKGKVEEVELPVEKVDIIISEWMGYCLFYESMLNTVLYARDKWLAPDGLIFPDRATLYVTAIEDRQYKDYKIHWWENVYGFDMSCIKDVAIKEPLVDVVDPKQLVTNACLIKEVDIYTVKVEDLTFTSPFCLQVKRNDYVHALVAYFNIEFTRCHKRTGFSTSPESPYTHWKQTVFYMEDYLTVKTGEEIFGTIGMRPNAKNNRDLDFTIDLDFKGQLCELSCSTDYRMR

Structure (SMILES)	IC50 [1] [µM]	IC50 [2] [µM]	IC50 [3] [µM]	IC50 [4] [µM]
COCC1(COC)CCC(c2c(CN(C)CCN)nn3c2CN(C(=O)C24CC(F)(C2)C4)CC3)CC1 [Example 45, (2-(((2-aminoethyl)(methyl)-amino)methyl)-3-(4,4-bis-(methoxymethyl)cyclohexyl)-6,7-dihydropyrazolo[1,5-a]-pyrazin-5(4H)-yl)(3-fluorobicyclo[1.1.1]pentan-1-yl)methanone]	0.83	0.178	0.175	0.018
COCC1(COC)CCC(c2c(CN(C)CCN)nn3c2CN(C(=O)C(C)C)CC3)CC1 [Example 43, 1-(2-(((2-aminoethyl)-(methyl)amino)methyl)-3-(4,4-bis(methoxymethyl)-cyclohexyl)-6,7-dihydro-pyrazolo[1,5-a]pyrazin-5(4H)-yl)-2-methylpropan-1-one]	0.46	0.149	0.185	0.027
CNCCN(C)Cc1nn2c(c1C1CCC(COC)(COC)CC1)CN(C(=O)C1CCC(F)(F)CC1)CC2 [Example 29, (3-(4,4-bis(methoxymethyl)-cyclohexyl)-2-((methyl(2-(methylamino)ethyl)amino)-methyl)-6,7-dihydropyrazolo-[1,5-a]pyrazin-5(4H)-yl)(4,4-difluorocyclohexyl)-methanone]	0.271	0.084	0.099	0.065
CNCCN(C)Cc1nn2c(c1C1CCC(COC)(COC)CC1)CN(C(=O)C1CC(F)(F)C1)CC2 [Example 53, (3-(4,4-bis(methoxymethyl)-cyclohexyl)-2-((methyl(2-(methylamino)ethyl)amino)-methyl)-6,7-dihydropyrazolo-[1,5-a]pyrazin-5(4H)-yl)(3,3-difluorocyclobutyl)-methanone]	1.11	0.042	0.087	0.068
CNCCN(C)Cc1nn2c(c1C1CCC(COC)(COC)CC1)CN(C(=O)C1(C)CCC1)CC2 [Example 19, (3-(4,4-bis(methoxymethyl)-cyclohexyl)-2-((methyl(2-(methylamino)ethyl)amino)-methyl)-6,7-dihydropyrazolo-[1,5-a]pyrazin-5(4H)-yl)(1-methylcyclobutyl)methanone]	0.214	0.037	0.087	0.052
CNCCN(C)Cc1nn2c(c1C1CCC(COC)(COC)CC1)CN(C(=O)C13CC(OC)(C1)C3)CC2 [Example 25, (3-(4,4-bis(methoxymethyl)-cyclohexyl)-2-((methyl(2-(methylamino)ethyl)amino)-methyl)-6,7-dihydropyrazolo-[1,5-a]pyrazin-5(4H)-yl)(3-methoxybicyclo[1.1.1]pentan-1-yl)methanone]	0.419	0.203	0.15	0.082
CNCCN(C)Cc1nn2c(c1C1CCC(COC)(COC)CC1)CN(C(=O)C1(C)CCCC1)CC2 [Example 80, (3-(4,4-bis(methoxymethyl)-cyclohexyl)-2-((methyl(2-(methylamino)ethyl)amino)-methyl)-6,7-dihydropyrazolo-[1,5-a]pyrazin-5(4H)-yl)(1-methylcyclopentyl)-methanone]	0.116	0.07	0.104	0.091
CNCCN(C)Cc1nn2c(c1C1CCC(COC)(COC)CC1)CN(C(=O)C13CC(F)(C1)C3)CC2 [Example 21, (3-(4,4-bis(methoxymethyl)-cyclohexyl)-2-((methyl(2-(methylamino)ethyl)amino)-methyl)-6,7-dihydropyrazolo-[1,5-a]pyrazin-5(4H)-yl)(3-fluorobicyclo[1.1.1]pentan-1-yl)methanone]	0.185	0.068	0.096	0.053
CCOCC1(COCC)CCC(c2c(CN(C)CCNC)nn3c2CN(C(=O)C2CC2)CC3)CC1 [Example 4, (3-(4,4-bis(ethoxymethyl)-cyclohexyl)-2-((methyl(2-(methylamino)ethyl)amino)-methyl)-6,7-dihydropyrazolo-[1,5-a]pyrazin-5(4H)-yl)-(cyclopropyl)methanone]	0.11	1.26	0.047	0.048
CNCCN(C)Cc1nn2c(c1C1CCC(COC)(COC)CC1)CN(C(=O)C1(OC)CC1)CC2 [Example 14, (3-(4,4-bis(methoxymethyl)-cyclohexyl)-2-((methyl(2-(methylamino)ethyl)amino)-methyl)-6,7-dihydropyrazolo-[1,5-a]pyrazin-5(4H)-yl)(1-methoxycyclopropyl)-methanone]	0.124	0.478	0.211	0.094
CNCCN(C)Cc1nn2c(c1C1CCC(COC)(COC)CC1)CN(C(=O)C1CCC(OC)CC1)CC2 (centres unmarked) [Example 48, (3-(4,4-bis(methoxymethyl)-cyclohexyl)-2-((methyl(2-(methylamino)ethyl)amino)-methyl)-6,7-dihydropyrazolo-[1,5-a]pyrazin-5(4H)-yl)(4-methoxycyclohexyl)-methanone]	1.41	0.247	0.284	0.156
CNCCN(C)Cc1nn2c(c1C1CCC(COC)(COC)CC1)CN(C(=O)C1CCCC1)CC2 [Example 33, (3-(4,4-bis(methoxymethyl)-cyclohexyl)-2-((methyl(2-(methylamino)ethyl)amino)-methyl)-6,7-dihydropyrazolo-[1,5-a]pyrazin-5(4H)-yl)-(cyclopentyl)methanone]	0.12	0.055	0.083	0.055
COCC1(COC)CCC(c2c(CN(C)CCN)nn3c2CN(C(=O)C2CC2)CC3)CC1 [Example 6, (2-(((2-aminoethyl)(methyl)-amino)methyl)-3-(4,4-bis-(methoxymethyl)cyclohexyl)-6,7-dihydropyrazolo[1,5-a]-pyrazin-5(4H)-yl)-(cyclopropyl)methanone]	0.361	0.147	0.138	0.014
CNCCN(C)Cc1nn2c(c1C1CCC(COC)(COC)CC1)CN(C(=O)C1(C(C)(F)F)COC1)CC2 [Example 23, (3-(4,4-bis(methoxymethyl)-cyclohexyl)-2-((methyl(2-(methylamino)ethyl)amino)-methyl)-6,7-dihydropyrazolo-[1,5-a]pyrazin-5(4H)-yl)(3-(1,1-difluoroethyl)oxetan-3-yl)methanone]	0.382	0.264	0.147	0.137
CNCCN(C)Cc1nn2c(c1C1CCC(COC)(COC)CC1)CN(C(=O)C1(C#N)CCC1)CC2 [Example 41, 1-(3-(4,4-bis(methoxy-methyl)cyclohexyl)-2-((methyl(2-(methylamino)-ethyl)amino)methyl)-4,5,6,7-tetrahydropyrazolo[1,5-a]-pyrazine-5-carbonyl)cyclobutane-1-carbonitrile]	0.18	0.175	0.091	0.072
CNCCN(C)Cc1nn2c(c1C1CCC(COC)(COC)CC1)CN(C(=O)C1CC(OC)C1)CC2 (centres unmarked) [Example 58, (3-(4,4-bis(methoxymethyl)-cyclohexyl)-2-((methyl(2-(methylamino)ethyl)amino)-methyl)-6,7-dihydropyrazolo-[1,5-a]pyrazin-5(4H)-yl)(3-methoxycyclobutyl)-methanone]	0.372	0.131	0.131	0.065
CNCCN(C)Cc1nn2c(c1C1CCC(COC)(COC)CC1)CN(C(=O)C1(C(F)(F)F)CC1)CC2 [Example 18, (3-(4,4-bis(methoxymethyl)-cyclohexyl)-2-((methyl(2-(methylamino)ethyl)amino)-methyl)-6,7-dihydropyrazolo-[1,5-a]pyrazin-5(4H)-yl)(1-(trifluoro-methyl)cyclopropyl)-methanone]	0.137	0.048	0.142	0.06

— patent US20230416261A1, “ETHANEDIAMINE-HETEROCYCLE DERIVATIVES AS INHIBITORS OF PROTEIN ARGININE METHYLTRANSFERASES” (Board of Regents, The University of Texas System, priority 2021, published 2023)
